Where a name gives a salt, the structure may show the parent alone.
Target: catalytic domain of human PARP14 (Homo sapiens (Human), UniProt Q460N5)
Experiment: Enzymatic assay for inhibition of PARP14 (DELFIA, auto-modification with biotin-NAD)
Assay type: biochemical
Conditions: auto-modification of PARP14 by biotin-NAD, 50 nM PARP14, 3 μM biotin-NAD
Method: An N-terminal His-TEV fusion tag was used to purify the protein from cell lysates. The His-TEV tag was left on the protein for use in the enzymatic assay.
Enzymatic inhibition of PARP14 was measured using a dissociation-enhanced lanthanide fluorescence immunoassay (DELFIA) monitoring the auto-modification of PARP14 by biotinylated nicotinamide adenine dinucleotide (biotin-NAD). 1 μL of a dose response curve of each test compound was spotted in 384-well nickel-coated white microplates (Thermo) using a Mosquito (TTP Labtech). Reactions were performed in a 50 μL volume by adding 40 μL of PARP14 in assay buffer (20 mM HEPES pH==8, 100 mM NaCl, 0.1% bovine serum albumin, 2 mM DTT and 0.002%0 Tween20), incubating with test compound at 25° C. for 30 min, then adding 10 μL of biotin-NAD (Biolog). The final concentrations of PARP14 and biotin-NAD are 50 nM and 3 μM, respectively. Reactions proceeded at 25° C. for 3 h, then were quenched with 5 μL of 10 mM unmodified nicotinamide adenine dinucleotide (Sigma-Aldrich). The quenched reactions were washed 3 times with 100 μL of TBST wash buffer (50 mM Tris-HCl, 150 mM NaCl and 0.1% Tween20). Next, to the washed and dried plate was added 25 μL of DELFIA Europium-N1 streptavidin (Perkin Elmer) diluted in DELFIA assay buffer (Perkin Elmer). After a 30 min incubation at 25° C., the plate was washed 5 times with TBST wash buffer. Finally, 25 μL of DELFIA enhancement solution was added. After a 5 min incubation the plate was read on an Envision platereader equipped with a LANCE/DELFIA top mirror (Perkin Elmer) using excitation of 340 nm and emission of 615 nm to measure the amount of Europium present in each well, informing on the amount of biotin-NAD that was transferred in the automodification reaction.
[formula] where ex615cmpd is the emission from the compound treated well, ex615min is the emission from the rucaparib treated positive control well and ex615max is the emission from the DMSO treated negative control well.
The % inhibition values were plotted as a function of compound concentration and the following 4-parameter fit was applied to derive the IC50 values:
[formula] where top and bottom are normally allowed to float, but may be fixed at 100 or 0 respectively in a 3-parameter fit. The Hill Coefficient is normally allowed to float but may also be fixed at 1 in a 3-parameter fit. Y is the % inhibition and X is the compound concentration.

catalytic domain of human PARP14, sequence (Q460N5 1611-1801): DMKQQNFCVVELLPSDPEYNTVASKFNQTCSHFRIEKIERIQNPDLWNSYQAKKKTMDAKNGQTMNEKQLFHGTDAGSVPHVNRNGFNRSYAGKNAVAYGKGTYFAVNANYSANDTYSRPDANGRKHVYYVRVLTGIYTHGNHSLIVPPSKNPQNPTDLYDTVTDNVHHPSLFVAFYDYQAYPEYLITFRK

| Structure (SMILES) | IC50 |
| --- | --- |
| Cc1cccc2c(=O)[nH]c(CS[C@H]3CCC[C@H](N)CC3)nc12 (relative stereo) [Example 54, 2-(((trans-4-Aminocycloheptyl)thio)methyl)-8-methylquinazolin-4(3H)-one Trifluoroacetate] | 1000 to 10000 nM |
| Cc1cccc2c(=O)[nH]c(CS[C@H]3CCC[C@@H](N)CC3)nc12 (relative stereo) [Example 55, 2-(((cis-4-Aminocycloheptyl)thio)methyl)-8-methylquinazolin-4(3H)-one Trifluoroacetate] | 1000 to 10000 nM |
| Cc1cccc2c(=O)[nH]c(CS[C@H]3CCC[C@H](CO)C3)nc12 (relative stereo) [Example 70, 2-(((trans-3-(Hydroxymethyl)cyclohexyl)thio)methyl)-8-methylquinazolin-4(3H)-one] | 1000 to 10000 nM |
| Cc1cccc2c(=O)[nH]c(CS[C@H]3CCC[C@@H](CO)C3)nc12 (relative stereo) [Example 71, 2-(((cis-3-(Hydroxymethyl)cyclohexyl)thio)methyl)-8-methylquinazolin-4(3H)-one] | 1000 to 10000 nM |
| Cc1cccc2c(=O)[nH]c(CS[C@@H]3CCC[C@H](CN(C)C)C3)nc12 (relative stereo) [Example 72, 2-((((cis)-3-((Dimethylamino)methyl)cyclohexyl)thio)methyl)-8-methyl quinazolin-4(3H)-one Trifluoroacetate] | > 10000 nM |
| Cc1cccc2c(=O)[nH]c(CS[C@@H]3CC[C@@H](CCN)C3)nc12 (relative stereo) [Example 183, 2-((((trans)-3-(2-aminoethyl)cyclopentyl)thio)methyl)-8-methylquinazolin-4(3H)-one] | 1000 to 10000 nM |
| O=c1[nH]c(CS[C@H]2CCNC[C@@H]2F)nc2cc(NC3CCCC3)cc(F)c12 (relative stereo) [Example 210, 7-(Cyclopentylamino)-5-fluoro-2-(((trans-3-fluoropiperidin-4-yl)thio)methyl)quinazolin-4(3H)-one Hydrochloride] | < 1000 nM |
| O=c1[nH]c(CS[C@H]2CCNC[C@H]2F)nc2cc(NC3CCCC3)cc(F)c12 (relative stereo) [Example 212, 7-(Cyclopentylamino)-5-fluoro-2-((((cis)-3-fluoropiperidin-4-yl)thio)methyl)quinazolin-4(3H)-one Hydrochloride] | < 1000 nM |
| Cc1cccc2c(=O)[nH]c(CS[C@H]3CC[C@@H](CO)OC3)nc12 (relative stereo) [Example 221, 2-(((Cis-6-(Hydroxymethyl)tetrahydro-2H-pyran-3-yl)thio)methyl)-8-methylquinazolin-4(3H)-one] | 1000 to 10000 nM |
| O=c1[nH]c(CS[C@H]2CCNC[C@@H]2C(F)(F)F)nc2cc(NC3CCCC3)cc(F)c12 (relative stereo) [Example 222, 7-(Cyclopentylamino)-5-fluoro-2-(((trans-3-(trifluoromethyl)piperidin-4-yl)thio)methyl)quinazolin-4(3H)-one Hydrochloride] | < 1000 nM |
| O=c1[nH]c(CS[C@H]2CNC[C@H]2F)nc2cc(NC3CCCC3)cc(F)c12 (relative stereo) [Example 223, 7-(Cyclopentylamino)-5-fluoro-2-(((cis-4-fluoropyrrolidin-3-yl)thio)methyl)quinazolin-4(3H)-one Trifluoroacetate] | < 1000 nM |
| O=c1[nH]c(CS[C@H]2CCN[C@H](C(F)(F)F)C2)nc2cc(NC3CCCC3)cc(F)c12 (relative stereo) [Example 227, 7-(Cyclopentylamino)-5-fluoro-2-(((trans-2-(trifluoromethyl)piperidin-4-yl)thio)methyl)quinazolin-4(3H)-one bis Trifluoroacetate] | 1000 to 10000 nM |
| O=c1[nH]c(CS[C@H]2CCN[C@@H](C(F)(F)F)C2)nc2cc(NC3CCCC3)cc(F)c12 (relative stereo) [Example 228, 7-(Cyclopentylamino)-5-fluoro-2-(((cis-2-(trifluoromethyl)piperidin-4-yl)thio)methyl)quinazolin-4(3H)-one hydrochloride] | 1000 to 10000 nM |

Source: patent publication US10562891B2, “Quinazolinones as PARP14 inhibitors” (Ribon Therapeutics Inc., priority 2017, dated 2020)
